Measured values taken from paper PMC7587962, “Evaluation of Cytotoxicity and α-Glucosidase Inhibitory Activity of Amide and Polyamino-Derivatives of Lupane Triterpenoids” (Molecules, 2020).

Legend:
M14 = assay: NCI-60 SRB screen: melanoma M14; format: cell-based, human; conditions: M14
BT-549 = assay: NCI-60 SRB screen: breast cancer BT-549; format: cell-based, human; conditions: BT-549
NCI/ADR-RES = assay: NCI-60 SRB screen: ovarian cancer NCI/ADR-RES; format: cell-based, human
SR = assay: NCI-60 SRB screen: leukemia SR; format: cell-based; conditions: Homo sapiens, 48 h
DU-145 = assay: NCI-60 SRB screen: prostate cancer DU-145; format: cell-based, human; conditions: DU-145
CAKI-1 = assay: NCI-60 SRB screen: renal cancer CAKI-1; format: cell-based, human; conditions: CAKI-1
SK-MEL-28 = assay: NCI-60 SRB screen: melanoma SK-MEL-28; format: cell-based, human; conditions: SK-MEL-28
CCRF-CEM = assay: NCI-60 SRB screen: leukemia CCRF-CEM; format: cell-based; conditions: Homo sapiens, 48 h
U251 = assay: NCI-60 SRB screen: CNS cancer U251; format: cell-based; conditions: Homo sapiens, U251
RPMI-8226 = assay: NCI-60 SRB screen: leukemia RPMI-8226; format: cell-based; conditions: Homo sapiens, 48 h, RPMI-8226
Ovarian Cancer subpanel = assay: NCI-60 screen, subpanel Ovarian Cancer
MALME-3M = assay: NCI-60 SRB screen: melanoma MALME-3M; format: cell-based, human; conditions: MALME-3M
RXF 393 = assay: NCI-60 SRB screen: renal cancer RXF 393; format: cell-based, human; conditions: RXF 393
OVCAR-5 = assay: NCI-60 SRB screen: ovarian cancer OVCAR-5; format: cell-based, human; conditions: OVCAR-5
Colon Cancer subpanel = assay: NCI-60 screen, subpanel Colon Cancer
Prostate cancer subpanel = assay: NCI-60 screen, subpanel Prostate cancer
HS 578T = assay: NCI-60 SRB screen: breast cancer HS 578T; format: cell-based, human; conditions: HS 578T
SK-OV-3 = assay: NCI-60 SRB screen: ovarian cancer SK-OV-3; format: cell-based, human; conditions: SK-OV-3
OVCAR-8 = assay: NCI-60 SRB screen: ovarian cancer OVCAR-8; format: cell-based, human; conditions: OVCAR-8
OVCAR-4 = assay: NCI-60 SRB screen: ovarian cancer OVCAR-4; format: cell-based; conditions: Homo sapiens; OVCAR-4; five concentrations, 48 h, SRB; read-out: GI50
SF-295 = assay: NCI-60 SRB screen: CNS cancer SF-295; format: cell-based, human; conditions: SF-295
UACC-257 = assay: NCI-60 SRB screen: melanoma UACC-257; format: cell-based, human; conditions: UACC-257
786-0 = assay: NCI-60 SRB screen: renal cancer 786-0; format: cell-based, human; conditions: 786-0
MCF7 = assay: NCI-60 SRB screen: breast cancer MCF7; format: cell-based; conditions: Homo sapiens, 48 h, MCF7
MOLT-4 = assay: NCI-60 SRB screen: leukemia MOLT-4; format: cell-based; conditions: Homo sapiens, 48 h, MOLT-4
SN12C = assay: NCI-60 SRB screen: renal cancer SN12C; format: cell-based, human
SNB-75 = assay: NCI-60 SRB screen: CNS cancer SNB-75; format: cell-based, human; conditions: SNB-75
T-47D = assay: NCI-60 SRB screen: breast cancer T-47D; format: cell-based, human; conditions: T-47D
NCI-H322M = assay: NCI-60 SRB screen: non-small cell lung cancer NCI-H322M; format: cell-based, human
HOP-62 = assay: NCI-60 SRB screen: non-small cell lung cancer HOP-62; format: cell-based, human; conditions: HOP-62
HOP-92 = assay: NCI-60 SRB screen: non-small cell lung cancer HOP-92; format: cell-based, human; conditions: HOP-92
A498 = assay: NCI-60 SRB screen: renal cancer A498; format: cell-based, human; conditions: A498
TK-10 = assay: NCI-60 SRB screen: renal cancer TK-10; format: cell-based, human; conditions: TK-10
NCI-H226 = assay: NCI-60 SRB screen: non-small cell lung cancer NCI-H226; format: cell-based, human; conditions: NCI-H226
EKVX = assay: NCI-60 SRB screen: non-small cell lung cancer EKVX; format: cell-based, human
[1] = Homo sapiens, five concentrations, 48 h, SRB, read-out: GI50
[2] = single dose 10 µM, read-out: Percentage Cell Growth
[3] = five concentrations, SRB, read-out: GI50

With `C=C(C)[C@@H]1CC[C@]2(C(=O)NCCCN)CC[C@]3(C)[C@H](CC[C@@H]4[C@@]5(C)CCC(=O)C(C)(C)[C@@H]5CC[C@]43C)[C@@H]12` [Compound 10] the GI50 (M14; [1]) was 24.7 µM, the “Percentage Cell Growth” value (M14; single dose 10 µM) was 5.07% and the “Percentage Cell Growth” value (BT-549; single dose 10 µM) was −2.14%. For the same compound, the GI50 (BT-549; [1]) was 23.8 µM, the GI50 (NCI/ADR-RES; [1]) was 24.8 µM and the “Percentage Cell Growth” value (NCI/ADR-RES; single dose 10 µM) was −9.52%. For the same compound, the activity at 10 µM (SR; [2]) was 23.7%, the GI50 (SR; [3]) was 9.05 µM and the “Percentage Cell Growth” value (DU-145; single dose 10 µM) was −100.00%. For the same compound, the GI50 (DU-145; [1]) was 17.5 µM, the “Percentage Cell Growth” value (CAKI-1; single dose 10 µM) was −54.52% and the GI50 (CAKI-1; [1]) was 21.9 µM. The GI50 (SK-MEL-28; [1]) was 22.1 µM, the “Percentage Cell Growth” value (SK-MEL-28; single dose 10 µM) was −31.42% and the activity at 10 µM (CCRF-CEM; [2]) was 1.39%. The GI50 (CCRF-CEM; [3]) was 22.1 µM, the activity at 10 µM (U251; U-251, 48 h, single dose 10 µM, read-out: Percentage Cell Growth) was -13.8% and the GI50 (U251; U-251, five concentrations, 48 h, SRB, read-out: GI50) was 17.7 µM. For the same compound, the activity at 10 µM (RPMI-8226; [2]) was -6.66%, the GI50 (RPMI-8226; [3]) was 17.2 µM and the “MID b, average sensitivity of all cell line of particular subpanel” value (from here on “MID b, average sensitivity”) (Ovarian Cancer subpanel) was 24.63 µM. The “Selectivity, ratio MID a: MID b” value (Ovarian Cancer subpanel) was 0.83, the GI50 (MALME-3M; [1]) was 23.3 µM and the “Percentage Cell Growth” value (MALME-3M; single dose 10 µM) was −18.76%. The GI50 (RXF 393; [1]) was 17.1 µM, the “Percentage Cell Growth” value (RXF 393; single dose 10 µM) was −42.28% and the GI50 (OVCAR-5; [1]) was 14.8 µM. The “Percentage Cell Growth” value (OVCAR-5; single dose 10 µM) was −47.68%, the “MID b, average sensitivity” value (Colon Cancer subpanel) was 17.82 µM and the “Selectivity, ratio MID a: MID b” value (Colon Cancer subpanel) was 1.15. For the same compound, the “MID b, average sensitivity” value (Prostate cancer subpanel) was 15.05 µM, the “Selectivity, ratio MID a: MID b” value (Prostate cancer subpanel) was 1.36 and the “Percentage Cell Growth” value (HS 578T; single dose 10 µM) was −4.98%. The GI50 (HS 578T; [1]) was 40.5 µM, the GI50 (SK-OV-3; [1]) was 17.7 µM and the “Percentage Cell Growth” value (SK-OV-3; single dose 10 µM) was −27.22%. The GI50 (OVCAR-8; [1]) was 27.7 µM, the “Percentage Cell Growth” value (OVCAR-8; single dose 10 µM) was −3.81% and the GI50 (OVCAR-4) was 25.6 µM. For the same compound, the GI50 (SF-295; [1]) was 22.6 µM, the “Percentage Cell Growth” value (SF-295; single dose 10 µM) was −26.39% and the GI50 (UACC-257; [1]) was 20.6 µM. The “Percentage Cell Growth” value (UACC-257; single dose 10 µM) was −46.67%, the “Percentage Cell Growth” value (786-0; single dose 10 µM) was −22.61% and the GI50 (786-0; [1]) was 23.2 µM. For the same compound, the activity at 10 µM (MCF7; [2]) was -8.46%, the GI50 (MCF7; [3]) was 10.7 µM and the activity at 10 µM (MOLT-4; [2]) was 2.76%. For the same compound, the GI50 (MOLT-4; [3]) was 12.9 µM, the GI50 (SN12C; [1]) was 20.8 µM and the “Percentage Cell Growth” value (SN12C; single dose 10 µM) was −34.74%. The GI50 (SNB-75; [1]) was 32.1 µM, the “Percentage Cell Growth” value (SNB-75; single dose 10 µM) was −51.56% and the GI50 (T-47D; Homo sapiens, T47D, five concentrations, 48 h, SRB, read-out: GI50) was 13.1 µM. The “Percentage Cell Growth” value (T-47D; single dose 10 µM) was −12.76%, the GI50 (NCI-H322M; [1]) was 17.6 µM and the “Percentage Cell Growth” value (NCI-H322M; single dose 10 µM) was −68.83%. For the same compound, the “Percentage Cell Growth” value (HOP-62; single dose 10 µM) was −26.80%, the GI50 (HOP-62; [1]) was 18.3 µM and the “Percentage Cell Growth” value (HOP-92; single dose 10 µM) was −55.49%. The GI50 (HOP-92; [1]) was 10.8 µM, the “Percentage Cell Growth” value (A498; single dose 10 µM) was −44.82% and the GI50 (A498; [1]) was 22.9 µM. The GI50 (TK-10; [1]) was 23.9 µM, the “Percentage Cell Growth” value (TK-10; single dose 10 µM) was −32.23% and the GI50 (NCI-H226; [1]) was 21.2 µM. The “Percentage Cell Growth” value (NCI-H226; single dose 10 µM) was 36.64%, the GI50 (EKVX; [1]) was 23.3 µM and the “Percentage Cell Growth” value (EKVX; single dose 10 µM) was −15.68%.
